Columns and labels:
[1] = tested on: DU145 prostate carcinoma cells; assay: Antiproliferative activity assay (crystal violet staining); assay type: cell-based; conditions: Homo sapiens, DU-145, as determined after 48 h, means ± SEM, n ≥ 3, read-out: Growth inhibitory activity IC50, DU145
Procedure: (§1) Stock solutions (10 mM) prepared by dissolution in DMSO were stored at −20 °C. Working solutions were always freshly prepared before each experiment by dilution of stock solution with medium. The final DMSO concentration never exceeded 0.25%. Treatment-induced changes in cell number were determined by crystal violet (N-hexamethylpararosaniline from Sigma Aldrich) staining. 1000 cells/well (DU145) or 1500 cells/well (Hep-G2) were seeded in 96-well plates and maintained for adherence in an incubator (37 °C, 5% CO2, humidified atmosphere) for 48 h prior to the beginning of the treatment. […] Thereafter, the cells were fixed with 1% glutaraldehyde and stained with 0.1% crystal violet. The unbound dye was removed by rinsing with water. Bound crystal violet was solubilized with 0.2% Triton X-100 (Sigma-Aldrich). Light extinction of crystal violet, which increases linearly with the cell number, was analyzed at 570 nm using an ELISA-Reader (Dynex Technologies, Denkendorf, Germany). For T-cell leukemia/lymphoma cell lines apoptosis was determined using dual staining for Annexin-V and 7AAD via flow cytometry.

[2] = tested on: Hep-G2 hepatoblastoma cells; assay: as above; assay type: cell-based; conditions: Homo sapiens, HepG2, as determined after 48 h, means ± SEM, n ≥ 3, read-out: Growth inhibitory activity IC50, Hep-G2
Procedure: as §1

[3] = tested on: Hut78 cells; assay: IC50 by Annexin-V/7AAD dual staining, flow cytometry; assay type: cell-based; conditions: Homo sapiens, as determined after 48 h, means ± SEM, n ≥ 3, read-out: Growth inhibitory activity IC50, Hut78
Procedure: as §1

[4] = tested on: Jurkat cells; assay: as above; assay type: cell-based; conditions: Homo sapiens, as determined after 48 h, means ± SEM, n ≥ 3, read-out: Growth inhibitory activity IC50, Jurkat
Procedure: as §1

[5] = tested on: SMZ1 cells; assay: as above; assay type: cell-based; conditions: Homo sapiens, as determined after 48 h, means ± SEM, n ≥ 3, read-out: Growth inhibitory activity IC50, SMZ1
Procedure: as §1

[6] = tested on: SupT11 cells; assay: as above; assay type: cell-based; conditions: Homo sapiens, as determined after 48 h, means ± SEM, n ≥ 3, read-out: Growth inhibitory activity IC50, SupT11
Procedure: as §1

[7] = target: T1, human recombinant HDAC1 (Homo sapiens, UniProt Q13547); assay: Fluorogenic subtype-specific HDAC assay; assay type: biochemical; conditions: cell-free enzymatic assay, 1–10 µM
T1 construct: purchased BPS Biosciences, San Diego, CA, USA

[8] = tested on: DU145 cells; assay: Western blot in DU145 cells (acetyl-H3, PARP, EGFR, P-mTOR); assay type: cell-based, human
Procedure: (§2) Western blots were performed as described earlier. Cells were seeded in 100 mm petri dishes, grown to almost confluency, treated for 24 h, washed and frozen, followed by lysis with RIPA Buffer, added with one cOmplete™ Mini protease Inhibitor tablet/10 mL (Roche), and quantification with Pierce^TM BCA Protein Assay Kit (Thermo Fisher Scientific). Thereafter protein levels were normalized to untreated controls so equal protein loading of 20 µg/lane. Laemmli Buffer and β-mercaptoethanol were added before probes were desaturated at 96 °C for 10 min. First, 7.5% or 12% SDS gels (Biorad, Munich, Germany) were loaded with proteins and electrophoresis was done. Thereafter, proteins were transferred to activated polyvinylidene difluoride membranes (PVDF) by electroblotting. Finally, the membranes were blocked with 1% BSA and incubated with primary antibodies over night at 4 °C.
(§3) Blots were washed three times with 1% TBS-Tween and incubated with anti-mouse or anti-rabbit peroxidase-coupled anti-IgG secondary antibodies (1:5000–1:10,000) at room temperature for 60 min. Subsequently, antibody bondage was illustrated using Clarity and Clarity Max ECL Western Blotting Substrates (Biorad, Munich, Germany) for detection and Celvin-S developer (Biostep, software SnapAndGo Vs 1.8.1) for development. […] Values were normalized to β-actin expression, which served as a loading control and compared to untreated control expressions which was set at 1. The mean ± SEM of the relative values to control are illustrated with Graph Pad Prism 8.

[9] = tested on: Hep-G2 cells; assay: Western blot in Hep-G2 cells (acetyl-H3, Apaf-1, Bcl-2); assay type: cell-based, human; conditions: 24 h
Procedure: as §2, with “°C. […] Only the Jurkat cells had already a high level of α-tubulin in untreated cells and, thus, drug-induced changes were not detectable in these cells.” for “°C.”
as §3

[10] = tested on: T-cell leukemia/lymphoma cells (Jurkat, Hut78, SMZ1, SupT11); assay: Western blot in T-cell leukemia/lymphoma cells (acetyl-H3, acetyl-α-tubulin); assay type: cell-based, human; conditions: 24 h
Procedure: as §2, with “°C. […] Only the Jurkat cells had already a high level of α-tubulin in untreated cells and, thus, drug-induced changes were not detectable in these cells.” for “°C.”
Blots were washed three times with 1% TBS-Tween and incubated with anti-mouse or anti-rabbit peroxidase-coupled anti-IgG secondary antibodies (1:5000–1:10,000) at room temperature for 60 min. […]

[11] = tested on: chorioallantoic membrane (CAM) of fertilized chicken eggs; assay: CAM assay (angiogenesis in fertilized chicken eggs); assay type: in vivo
Procedure: Anti-angiogenesis activity of SF5-SAHA was tested on the CAM (chorioallantoic membrane) of fertilized chicken eggs. The embryonic development was started by placing the eggs in a humidified (>60%) incubator in an upright position at a temperature of 37.8 °C. After 3 days, a hole of 2 mm was pierced in the eggshell top side in order to detach the developing CAM from the eggshell and let it sink into the allantoic cavity. After 10 days, the eggshell hole was broadened, and a silicone ring (1 cm Ø) was placed on the CAM, which was allowed to attach for 6 h. Then, 20 µL of SF5-SAHA containing medium or PBS (control) was added into the ring. The angiogenic states of the CAM were documented using a stereomicroscope equipped with a Kappa digital camera system (Distelkamp-Electronic, Kaiserslautern, Germany). Pictures were taken every 24 h until the finish of the experiment after 72 h. The CAM experiments were carried out with n = 3 eggs for each condition.

T1 sequence (Q13547 whole entry): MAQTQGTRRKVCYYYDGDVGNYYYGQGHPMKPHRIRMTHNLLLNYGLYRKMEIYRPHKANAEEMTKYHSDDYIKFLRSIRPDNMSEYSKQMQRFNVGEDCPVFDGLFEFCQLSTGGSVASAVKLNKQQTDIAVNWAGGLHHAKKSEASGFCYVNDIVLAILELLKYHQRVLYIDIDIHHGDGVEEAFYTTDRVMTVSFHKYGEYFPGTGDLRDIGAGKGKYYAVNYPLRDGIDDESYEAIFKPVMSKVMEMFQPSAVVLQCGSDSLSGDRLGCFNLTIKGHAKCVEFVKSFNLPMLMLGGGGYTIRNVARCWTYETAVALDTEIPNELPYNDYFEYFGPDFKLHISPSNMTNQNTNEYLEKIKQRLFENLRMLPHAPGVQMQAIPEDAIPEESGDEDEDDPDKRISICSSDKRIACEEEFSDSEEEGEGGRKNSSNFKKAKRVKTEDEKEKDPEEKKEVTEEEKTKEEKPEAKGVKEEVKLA

O=C(CCCCCCC(=O)Nc1ccc(S(F)(F)(F)(F)F)cc1)NO [SF5-SAHA]
IC50 [1]: 730 ± 1080 nM
IC50 [2]: 1790 ± 1060 nM
IC50 [3]: 2400 ± 400 nM
IC50 [4]: 760 ± 60 nM
IC50 [5]: 1580 ± 290 nM
IC50 [6]: 3080 ± 330 nM
HDAC1 inhibition (comparison) [7]: comparable activities against HDAC1
phosphorylated mTOR (P-mTOR) level [8]: reduced the level of phosphorylated (activated) mTOR
EGFR protein expression ([8]; 24 h): significant downregulation of EGFR protein expression
PARP cleavage ([8]; 24 h): detection of PARP cleavage in treated DU145 cells
acetylated histone H3 level ([8]; 24 h): dose-dependent rise of H3 acetylation
Bcl-2 expression ([9]; 2 µM and 4 µM): downregulated
Apaf-1 expression ([9]; 2 and 4 µM): increased Apaf-1 expression
acetylated histone H3 level [9]: dose-dependent rise of H3 acetylation
acetyl-α-tubulin level [10]: increased in a dose-dependent way in three out of four tested cell lines
acetylated histone H3 level [10]: Dose-dependent increases in acetylated H3 were observed in all tested leukemia/lymphoma cancer cell lines
toxicity to chicken embryos ([11]; doses of 5 and 10 µM): no toxicity
antiangiogenic effect on CAM ([11]; topical application, 5 or 10 µM, 72 h): reduced vessel diameters and reduced numbers of vessel branches

From publication PMC8704709, “Improved Anticancer Activities of a New Pentafluorothio-Substituted Vorinostat-Type Histone Deacetylase Inhibitor” (Pharmaceuticals, 2021)
